ChEMBL document CHEMBL3885881, “DrugMatrix”

Organism: Rattus norvegicus
Assay: DrugMatrix - Regimen: Daily Repeat
Type: toxicity, organism-based, Sprague-Dawley
Parameters: regimen Daily Repeat, gender Male, age 6-8 weeks
Details: in vivo, dose level Low; for ABSOLUTE BASOPHIL / ABSOLUTE EOSINOPHIL / ABSOLUTE LYMPHOCYTE / ABSOLUTE MONOCYTE / ABSOLUTE SEGMENTED NEUTROPHIL / BASOPHIL / EOSINOPHIL / ERYTHROCYTE COUNT / HEMATOCRIT / HEMOGLOBIN / LEUKOCYTE COUNT / LYMPHOCYTE / MEAN CORPUSCULAR HEMOGLOBIN / MEAN CORPUSCULAR HEMOGLOBIN CONCENTRATION / MEAN CORPUSCULAR VOLUME / MONOCYTE / NEUTROPHIL / NUCLEATED RED BLOOD CELLS / PLATELET COUNT: tissue Blood; for ALANINE AMINOTRANSFERASE / ALBUMIN / ALKALINE PHOSPHATASE / ASPARTATE AMINOTRANSFERASE / BLOOD UREA NITROGEN / CARBON DIOXIDE / CHLORIDE / CHOLESTEROL / CREATINE PHOSPHOKINASE / CREATININE / GLUCOSE / LACTATE DEHYDROGENASE / LIPASE / PHOSPHORUS / POTASSIUM / SODIUM / TOTAL BILIRUBIN / TOTAL PROTEIN / URIC ACID: tissue Plasma
[1] = iv, 31 mg/kg, 72 h, time 3 day, vehicle 100 % SALINE
[2] = iv, 31 mg/kg, 120 h, time 5 day, vehicle 100 % SALINE
[3] = po, 100 mg/kg, 72 h, route oral GAVAGE, time 3 day, vehicle .5 % CMC
[4] = po, 100 mg/kg, 120 h, route oral GAVAGE, time 5 day, vehicle .5 % CMC

## Cc1cn[nH]c1 [FOMEPIZOLE]
[1]
  ABSOLUTE BASOPHIL: 0 CELLS/uL
  ABSOLUTE EOSINOPHIL: 41 CELLS/uL
  ABSOLUTE LYMPHOCYTE: 12783.33 CELLS/uL
  ABSOLUTE MONOCYTE: 137 CELLS/uL
  ABSOLUTE SEGMENTED NEUTROPHIL: 738.67 CELLS/uL
  BASOPHIL: 0%
  EOSINOPHIL: 0.33%
  ERYTHROCYTE COUNT: 5.82 x10E6/uL
  HEMATOCRIT: 35.33%
  HEMOGLOBIN: 13.87 G/DL
  LEUKOCYTE COUNT: 13.7 x10E3/uL
  LYMPHOCYTE: 93.33%
  MEAN CORPUSCULAR HEMOGLOBIN: 23.83 pg
  MEAN CORPUSCULAR HEMOGLOBIN CONCENTRATION: 39.27 G/DL
  MEAN CORPUSCULAR VOLUME: 60.67 fL
  MONOCYTE: 1%
  NEUTROPHIL: 5.33%
  NUCLEATED RED BLOOD CELLS: 0 /100WBC
  PLATELET COUNT: 1326.67 x10E3/uL
  ALANINE AMINOTRANSFERASE: 46.33 u/L
  ALBUMIN: 4.27 G/DL
  ALKALINE PHOSPHATASE: 429.67 u/L
  ASPARTATE AMINOTRANSFERASE: 79 u/L
  BLOOD UREA NITROGEN: 14.67 mg/dL
  CARBON DIOXIDE: 23.67 mmol/L
  CHLORIDE: 103.67 MEQ/L
  CHOLESTEROL: 67.67 mg/dL
  CREATINE PHOSPHOKINASE: 240.33 u/L
  CREATININE: 0.15 mg/dL
  GLUCOSE: 166.33 mg/dL
  LACTATE DEHYDROGENASE: 139.67 u/L
  LIPASE: 9.33 u/L
  PHOSPHORUS: 13.53 mg/dL
  POTASSIUM: 6.4 MEQ/L
  SODIUM: 147.03 MEQ/L
  TOTAL BILIRUBIN: 0.2 mg/dL
  TOTAL PROTEIN: 5.77 G/DL
  URIC ACID: 1.67 mg/dL
[2]
  ABSOLUTE BASOPHIL: 0 CELLS/uL
  ABSOLUTE EOSINOPHIL: 0 CELLS/uL
  ABSOLUTE LYMPHOCYTE: 17243.67 CELLS/uL
  ABSOLUTE MONOCYTE: 226 CELLS/uL
  ABSOLUTE SEGMENTED NEUTROPHIL: 1697 CELLS/uL
  BASOPHIL: 0%
  EOSINOPHIL: 0%
  ERYTHROCYTE COUNT: 5.34 x10E6/uL
  HEMATOCRIT: 34.37%
  HEMOGLOBIN: 13.8 G/DL
  LEUKOCYTE COUNT: 19.17 x10E3/uL
  LYMPHOCYTE: 89.67%
  MEAN CORPUSCULAR HEMOGLOBIN: 25.9 pg
  MEAN CORPUSCULAR HEMOGLOBIN CONCENTRATION: 40.17 G/DL
  MEAN CORPUSCULAR VOLUME: 64.4 fL
  MONOCYTE: 1.33%
  NEUTROPHIL: 9%
  NUCLEATED RED BLOOD CELLS: 0 /100WBC
  PLATELET COUNT: 1415 x10E3/uL
  ALANINE AMINOTRANSFERASE: 63.33 u/L
  ALBUMIN: 4.27 G/DL
  ALKALINE PHOSPHATASE: 350 u/L
  ASPARTATE AMINOTRANSFERASE: 91 u/L
  BLOOD UREA NITROGEN: 15.33 mg/dL
  CARBON DIOXIDE: 21.67 mmol/L
  CHLORIDE: 103.33 MEQ/L
  CHOLESTEROL: 77 mg/dL
  CREATINE PHOSPHOKINASE: 195 u/L
  CREATININE: 0.2 mg/dL
  GLUCOSE: 155.67 mg/dL
  LACTATE DEHYDROGENASE: 131 u/L
  LIPASE: 10.67 u/L
  PHOSPHORUS: 13.77 mg/dL
  POTASSIUM: 6.85 MEQ/L
  SODIUM: 145.9 MEQ/L
  TOTAL BILIRUBIN: 0.17 mg/dL
  TOTAL PROTEIN: 5.93 G/DL
  URIC ACID: 1.7 mg/dL

## CC=Cc1ccc(O)c(OC)c1 [ISOEUGENOL]
[3]
  ABSOLUTE BASOPHIL: 0 CELLS/uL
  ABSOLUTE EOSINOPHIL: 0 CELLS/uL
  ABSOLUTE LYMPHOCYTE: 15444.33 CELLS/uL
  ABSOLUTE MONOCYTE: 342 CELLS/uL
  ABSOLUTE SEGMENTED NEUTROPHIL: 1847 CELLS/uL
  BASOPHIL: 0%
  EOSINOPHIL: 0%
  ERYTHROCYTE COUNT: 5.62 x10E6/uL
  HEMATOCRIT: 36.7%
  HEMOGLOBIN: 13.83 G/DL
  LEUKOCYTE COUNT: 17.63 x10E3/uL
  LYMPHOCYTE: 87.33%
  MEAN CORPUSCULAR HEMOGLOBIN: 24.63 pg
  MEAN CORPUSCULAR HEMOGLOBIN CONCENTRATION: 37.77 G/DL
  MEAN CORPUSCULAR VOLUME: 65.23 fL
  MONOCYTE: 2%
  NEUTROPHIL: 10.67%
  NUCLEATED RED BLOOD CELLS: 0 /100WBC
  PLATELET COUNT: 1262 x10E3/uL
  ALANINE AMINOTRANSFERASE: 53.33 u/L
  ALBUMIN: 4.73 G/DL
  ALKALINE PHOSPHATASE: 338.67 u/L
  ASPARTATE AMINOTRANSFERASE: 88.33 u/L
  BLOOD UREA NITROGEN: 17.67 mg/dL
  CARBON DIOXIDE: 23.67 mmol/L
  CHLORIDE: 102 MEQ/L
  CHOLESTEROL: 66.67 mg/dL
  CREATINE PHOSPHOKINASE: 312.33 u/L
  CREATININE: 0.17 mg/dL
  GLUCOSE: 143 mg/dL
  LACTATE DEHYDROGENASE: 280.33 u/L
  LIPASE: 9.33 u/L
  PHOSPHORUS: 11.33 mg/dL
  POTASSIUM: 6.23 MEQ/L
  SODIUM: 144.93 MEQ/L
  TOTAL BILIRUBIN: 0.23 mg/dL
  TOTAL PROTEIN: 5.83 G/DL
  URIC ACID: 1.8 mg/dL
[4]
  ABSOLUTE BASOPHIL: 0 CELLS/uL
  ABSOLUTE EOSINOPHIL: 450 CELLS/uL
  ABSOLUTE LYMPHOCYTE: 12545.67 CELLS/uL
  ABSOLUTE MONOCYTE: 392.67 CELLS/uL
  ABSOLUTE SEGMENTED NEUTROPHIL: 1645 CELLS/uL
  BASOPHIL: 0%
  EOSINOPHIL: 3%
  ERYTHROCYTE COUNT: 5.9 x10E6/uL
  HEMATOCRIT: 36%
  HEMOGLOBIN: 13.27 G/DL
  LEUKOCYTE COUNT: 15.03 x10E3/uL
  LYMPHOCYTE: 83.33%
  MEAN CORPUSCULAR HEMOGLOBIN: 22.57 pg
  MEAN CORPUSCULAR HEMOGLOBIN CONCENTRATION: 36.83 G/DL
  MEAN CORPUSCULAR VOLUME: 61.17 fL
  MONOCYTE: 2.67%
  NEUTROPHIL: 11%
  NUCLEATED RED BLOOD CELLS: 0 /100WBC
  PLATELET COUNT: 1402 x10E3/uL
  ALANINE AMINOTRANSFERASE: 47.67 u/L
  ALBUMIN: 4.37 G/DL
  ALKALINE PHOSPHATASE: 345.67 u/L
  ASPARTATE AMINOTRANSFERASE: 83.33 u/L
  BLOOD UREA NITROGEN: 18 mg/dL
  CARBON DIOXIDE: 23.67 mmol/L
  CHLORIDE: 109.67 MEQ/L
  CHOLESTEROL: 58 mg/dL
  CREATINE PHOSPHOKINASE: 251.33 u/L
  CREATININE: 0.21 mg/dL
  GLUCOSE: 141 mg/dL
  LACTATE DEHYDROGENASE: 180.67 u/L
  LIPASE: 9 u/L
  PHOSPHORUS: 11.17 mg/dL
  POTASSIUM: 6.1 MEQ/L
  SODIUM: 146.53 MEQ/L
  TOTAL BILIRUBIN: 0.2 mg/dL
  TOTAL PROTEIN: 6.13 G/DL
  URIC ACID: 1.57 mg/dL
